Results on 42 compounds are retold here after ChEMBL document CHEMBL1140325, “Discovery of high-affinity ligands of sigma1 receptor, ERG2, and emopamil binding protein by pharmacophore modeling and virtual screening” (J Med Chem, 2005).

Broadly, the Ki is the equilibrium dissociation constant of an inhibitor or competing ligand from its target.

The target in assay [1] is C-8 sterol isomerase ERG2 (Saccharomyces cerevisiae S288c, UniProt P32352). The assay is described as follows: Affinity for ERG2 of Saccharomyces cerevisiae using [3H]ifenprodil or (+)-[3H]pentazocine radioligand.
Assay [2] has as its target 3-beta-hydroxysteroid-Delta(8),Delta(7)-isomerase (Homo sapiens, UniProt Q15125). The experiment in a line: Affinity for human EMP expressed in ERG2 deficient strain of Saccharomyces cerevisiae using [3H]ifenprodil or (+)-[3H]pentazocine as radioligand.

Sequence of 3-beta-hydroxysteroid-Delta(8),Delta(7)-isomerase (Q15125 whole entry): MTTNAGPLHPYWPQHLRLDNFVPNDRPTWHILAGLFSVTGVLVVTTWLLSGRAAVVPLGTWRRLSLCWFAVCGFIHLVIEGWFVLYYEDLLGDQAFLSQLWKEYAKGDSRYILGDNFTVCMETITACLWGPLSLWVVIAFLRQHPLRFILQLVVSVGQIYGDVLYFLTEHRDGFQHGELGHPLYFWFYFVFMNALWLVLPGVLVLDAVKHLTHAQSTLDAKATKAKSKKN
Sequence of C-8 sterol isomerase ERG2 (P32352 whole entry): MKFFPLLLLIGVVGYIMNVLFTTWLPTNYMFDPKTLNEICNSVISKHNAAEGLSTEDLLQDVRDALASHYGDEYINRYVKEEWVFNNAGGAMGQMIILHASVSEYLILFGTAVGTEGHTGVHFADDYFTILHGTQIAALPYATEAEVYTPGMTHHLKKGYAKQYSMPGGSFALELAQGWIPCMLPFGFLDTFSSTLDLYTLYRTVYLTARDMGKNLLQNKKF

Consider `C[C@H]1CCC2[C@@H](C)[C@H]3[C@H](C[C@H]4C5CC=C6C[C@@H](O)CC[C@]6(C)[C@H]5CC[C@]34C)N2C1` (single isomer, unassigned), for which the Ki in assay [1] (read-out: Ki) was more than 100000 nM; in assay [2] it was 441 nM.

In the case of `CC(Cc1ccc(C(C)(C)C)cc1)CN1C[C@@H](C)O[C@@H](C)C1` (stereo not given in full) [FENPROPIMORPH], the results for the Ki in assay [1] (read-out: Ki) and in assay [2] were 0.05 nM and 30 nM, respectively.

On to `C=CCN1CC[C@@]2(C)c3cc(O)ccc3CC1[C@H]2C`, for which the values for the Ki in assay [1] (read-out: Ki) and in assay [2] were 4700 nM and 9300 nM, respectively.

For `CC(C)[C@](C#N)(CCCN(C)CCc1ccccc1)c1ccccc1`, the figures for the Ki in assay [1] (read-out: Ki) and in assay [2] were 65 nM and 6 nM, respectively.

As to `CN1CCN(CCCN2c3ccccc3Sc3ccc(C(F)(F)F)cc32)CC1` [TRIFLUOPERAZINE], the values for the Ki in assay [1] (read-out: Ki) and in assay [2] were 500 nM and 8 nM, respectively.

Consider `CC(C)[C@@](C#N)(CCCN(C)CCc1ccccc1)c1ccccc1` [LEVEMOPAMIL], for which the Ki is 74 nM in assay [1] (read-out: Ki) and 18 nM in assay [2].

`O=C(O)c1ccc(CCN2CCN(C/C=C/c3ccc(Cl)cc3)CC2)cc1`: the figures for the Ki in assay [1] (read-out: Ki) and in assay [2] were 16500 nM and 34000 nM, respectively.

With `CC1=C2C[C@H]3[C@@H](CC=C4C[C@@H](O)CC[C@@]43C)[C@@H]2CC[C@]12O[C@]1(C)C[C@H](C)CN[C@H]1[C@H]2C`, the Ki in assay [1] (read-out: Ki) was determined as 500 nM; in assay [2], 654 nM.

As for `CC(C)CCCC(C)CCCC(C)N1CC[C@H]2[C@H](C)[C@@H](O)CC[C@]2(C)C1` (stereo not given in full), the Ki in assay [1] (read-out: Ki) stood at 0.4 nM; in assay [2], 0.6 nM.

As to `OCCN1CCN(CCCN2c3ccccc3C=Cc3ccccc32)CC1` [OPIPRAMOL], the Ki was 17 nM in assay [1] (read-out: Ki) and 13 nM in assay [2].

Regarding `CCCCCCCCCCCCC(C#N)(CCCN(C)CCc1ccccc1)c1ccccc1` (stereo not given) [RONIPAMIL], the Ki in assay [1] (read-out: Ki) was determined as 13 nM; in assay [2], 2 nM.

For `C[C@H]([C@@H](O)c1ccc(O)cc1)N1CCC(Cc2ccccc2)CC1` [(S,R)-IFENPRODIL], in assay [1] (read-out: Ki), the Ki came to 1 nM.

In the case of `C[C@]12CC[C@H]3[C@@H](CCC4=CC(=O)CC[C@@]43C)[C@@H]1CC[C@@H]2O` [TESTOSTERONE], the figures for the Ki in assay [1] (read-out: Ki) and in assay [2] were 7760 nM and more than 100000 nM, respectively.

With `CN(c1nc2ccccc2s1)C1CCN(CCCCOc2ccccc2)C1` (stereo not given), the Ki in assay [1] (read-out: Ki) was found to be 169 nM; in assay [2] it was 450 nM.

For `CCN(CC)CCO[C@H]1CC[C@@]2(C)C(=CC[C@@H]3[C@@H]2CC[C@]2(C)C(=O)CC[C@@H]32)C1`, the Ki in assay [1] (read-out: Ki) is 0.2 nM; in assay [2], 2 nM.

`CC(C)=CCN1CC[C@@]2(C)c3cc(O)ccc3CC1[C@H]2C`: the figures for the Ki in assay [1] (read-out: Ki) and in assay [2] were 1000 nM and 500 nM, respectively.

In turn, `CCCN(CCC)CCc1ccc(OC)c(OCCc2ccccc2)c1` showed a Ki in assay [2] of 15 nM.

In the case of `O=C(CCCN1CCC(O)(c2ccc(Cl)cc2)CC1)c1ccc(F)cc1` [HALOPERIDOL], the Ki is 0.5 nM in assay [1] (read-out: Ki) and 190 nM in assay [2].

`CCCN1CCC[C@H](c2cccc(O)c2)C1`: the Ki in assay [1] (read-out: Ki) was 1200 nM; in assay [2], 2200 nM.

With `CCN(CC)CCOc1ccc(C(O)(Cc2ccc(Cl)cc2)c2ccc(C)cc2)cc1` (stereo not given) [TRIPARANOL], the Ki in assay [1] (read-out: Ki) was 2 nM; in assay [2], 11 nM.

With `COc1ccc2c(c1)CCC(c1ccccc1)=C2c1ccc(OCCN2CCCC2)cc1` [NAFOXIDINE], in assay [1] (read-out: Ki), the Ki amounted to 232 nM.

As for `CCCCCCCCCCCCCN1C[C@@H](C)O[C@@H](C)C1`, the Ki in assay [1] (read-out: Ki) turned out to be 0.09 nM; in assay [2], 1 nM.

`CC(=O)[C@H]1CC[C@H]2[C@@H]3CCC4=CC(=O)CC[C@]4(C)[C@H]3CC[C@]12C` [PROGESTERONE]: the values for the Ki in assay [1] (read-out: Ki) and in assay [2] were 4430 nM and more than 100000 nM, respectively.

For the compound `O=C(CCCN1CCC(O)(c2cccc(C(F)(F)F)c2)CC1)c1ccc(F)cc1` [TRIFLUPERIDOL], the Ki was determined as 0.15 nM in assay [1] (read-out: Ki) and 165 nM in assay [2].

For the compound `CC1CC[C@]2(NC1)O[C@H]1C[C@H]3[C@@H]4CC[C@H]5C[C@@H](O)CC[C@]5(C)[C@H]4CC[C@]3(C)[C@H]1[C@@H]2C` (stereo not given in full), the Ki was 387 nM in assay [1] (read-out: Ki) and 583 nM in assay [2].

As to `CC1CC[C@@]2(NC1)O[C@H]1C[C@H]3[C@@H]4CC=C5C[C@@H](O)CC[C@]5(C)[C@H]4CC[C@]3(C)[C@H]1[C@@H]2C` (stereo not given in full), the Ki in assay [1] (read-out: Ki) was 1170 nM; in assay [2] it was more than 100000 nM.

Turning to `CN(C/C=C/c1ccccc1)Cc1cccc2ccccc12` [NAFTIFINE], the Ki in assay [1] (read-out: Ki) amounted to 310 nM; in assay [2] it was 1500 nM.

As for `CC1=C2C(=O)[C@H]3[C@@H](CC=C4C[C@@H](O)CC[C@@]43C)[C@@H]2CC[C@]12O[C@@H]1C[C@H](C)CN[C@H]1[C@H]2C` [JERVINE], the Ki was 284 nM in assay [1] (read-out: Ki) and more than 100000 nM in assay [2].

With `CC/C(=C(/CC)c1ccc(OCCN(CC)CC)cc1)c1ccc(OCCN(CC)CC)cc1`, the Ki is 0.7 nM in assay [1] (read-out: Ki) and 54 nM in assay [2].

Take `CCCCN1CCC2(CCCc3ccccc32)CC1`: the Ki stood at 5 nM in assay [1] (read-out: Ki) and 1 nM in assay [2].

Take `Cc1ccccc1NC(=N)Nc1ccccc1C` [DITOLYLGUANIDINE]: the figures for the Ki in assay [1] (read-out: Ki) and in assay [2] were 2000 nM and 6700 nM, respectively.

In the case of `CCCCCCCOc1ccccc1NC(=O)OC(C)CN(CC)CC` (stereo not given), the Ki stood at 2800 nM in assay [1] (read-out: Ki) and 51 nM in assay [2].

On to `N=C(NCCSC(c1ccccc1)c1ccccc1)NCCc1cnc[nH]1`, for which the results for the Ki in assay [1] (read-out: Ki) and in assay [2] were 170 nM and 39 nM, respectively.

Turning to `COc1cc(OC)c(C(=O)CCCN2CCCC2)c(OC)c1` [BUFLOMEDIL], the Ki in assay [1] (read-out: Ki) is 7150 nM; in assay [2] it was 60 nM.

In assay [1], `CC/C(=C(\c1ccccc1)c1ccc(OCCN(C)C)cc1)c1ccccc1` [TAMOXIFEN] gave a Ki of 1500 nM.

On to `N=C(NCc1ccccc1)Nc1nc(-c2cc3ccccc3[nH]2)cs1`, for which the Ki in assay [1] (read-out: Ki) is 31700 nM; in assay [2], 8500 nM.

With `CN(C/C=C/C#CC(C)(C)C)Cc1cccc2ccccc12` [TERBINAFINE], the Ki in assay [1] (read-out: Ki) and in assay [2] was more than 50000 nM in each case.

On to `CCN(CC)CCOc1ccc(/C(=C(/Cl)c2ccccc2)c2ccccc2)cc1` [ENCLOMIPHENE], for which the values for the Ki in assay [1] (read-out: Ki) and in assay [2] were 160 nM and 1 nM, respectively.

Turning to `C[C@]12C[C@H](O)[C@H]3[C@@H](CCC4=CC(=O)CC[C@@]43C)[C@@H]1CC[C@@H]2C(=O)CO` [CORTICOSTERONE], the Ki in assay [1] (read-out: Ki) and in assay [2] was more than 100000 nM in each case.

Consider `CCN(C/C=C/c1ccc(C2CCCCC2)c(Cl)c1)C1CCCCC1`, for which the Ki turned out to be 9 nM in assay [1] (read-out: Ki) and 3 nM in assay [2].

Regarding `O=C(c1ccc(OCCN2CCCCC2)cc1)c1c(-c2ccc(O)cc2)sc2cc(O)ccc12` [RALOXIFENE], the Ki in assay [1] (read-out: Ki) came out at 66 nM; in assay [2] it was 1 nM.

On to `CCN(CC)CCOc1ccc(/C(=C(\Cl)c2ccccc2)c2ccccc2)cc1` [ZUCLOMIPHENE], for which the Ki in assay [1] (read-out: Ki) and in assay [2] was 2 nM in each case.
